Experimental data reported in US6465519B2, “Uses of modafinil and its D/L enantiomers” (priority 1999, dated 2002).

Assays:
[1] = cited from earlier work
Young female SD rats = assay: Effect of Modafinil on uterus weight in female rats; format: in vivo; conditions: 200 mg/kg/day for 15 days
Method: EXPERIMENTAL ANIMAL: Young female SD rats of 25 days old were used. Food and drug administration was the sane as used in the Example 1.
EXPERIMENTAL PROTOCOL: 15 female rats for control were fed 3% starch paste 2 ml/day for 15 successive days. 15 female rats treated with Modafinil(prepared according to Example 1 in the U.S. Pat. No. 4,177,290) mixed with 3% starch paste for 200 mg/kg/day in 2 ml of starch paste a day. Animals were sacrificed on day 16 and the uterei were taken out. Every fresh uterus was weighed.

[2] = tested on: spermatozoa counts in rats; assay: Effect of Modafinil on spermatogenesis in rats; format: in vivo, SD male rats; conditions: for mean number of spermatozoa per gram weight of sperm ± S.D.: SD male rats, sperm from epididymis tail
Method: EXPERIMENTAL ANIMALS: SD male rats, 2 months old, weighing 210 to 260 g, were used for this experiment. All the animals were fed in the laboratory for a week before starting the experiment for accommodative purpose. The animals were distributed randomly into 5 experimental groups, 10 in each group. The room temperature was kept at 20 to 25° C. 4 groups of rats were administrated with Modafinil and 1 group for control.
METHODS AND PROTOCOLS: In treated groups, various doses of Modafinil were given by gavage as 200, 400, 600 and 800 mg/kg/day in rats. Modafinil(prepared according to Example 1 in the U.S. Pat. No. 4,177,290) was mixed with 3% starch paste, 2 ml for each rat per day, gavage feeding for successive 30 days. The controlled animals received the 3% starch paste without drug, with same amount for 30 successive days. The morphology, motility and number of the spermatozoa of the animals in each group were observed and counted. On days 31, all animals were killed. Spermatozoa in the sperm taken from epididymis tail were counted; the testes and prostates were taken out. Histological sections were made and examined under microscope.

SD rats of both sexes = assay: Effect of Modafinil on sexual ability in rats; format: in vivo; conditions: 200 mg/kg/day for 15 days
Method: EXPERIMENTAL ANIMALS: SD rats of both sexes were used and feeding methods of the drug were the same as in the Example 1.
EXPERIMENTAL PROTOCOL: 15 males and 15 females for control fed with 3% starch paste for 15 days while 15 males and 15 females were is treated with 200 mg/kg/day of Modafinil(prepared according to Example 1 in the U.S. Pat. No. 4,177,290) for 15 days. On day 16 evening, each special cage was distributed by chance with 1 male and 1 female rat couple. For the first 2 hours of coinhabitation, the numbers of sexual intercourse movement of male along with acceptance of female were counted.

NC(=O)C[S+]([O-])C(c1ccccc1)c1ccccc1 (stereo not drawn) [Modafinil, 2-[(Diphenylmethyl)sulfinyl]-N-Acetamide]
solubility in acetone ([1]; acetone): sparingly or slightly soluble
solubility in cyclohexane ([1]; cyclohexane): insoluble
solubility in methanol ([1]; methanol): sparingly or slightly soluble
solubility in water ([1]; water): insoluble
mean uterus weight relative to controls (Young female SD rats): 158 % of that in Controls
mean uterus weight (Mean+S.D.) (Young female SD rats; fresh uterus on day 16): 0.418 ± 0.082 g
mean number of spermatozoa per gram weight of sperm ± S.D. ([2]; 200 mg/kg/day by gavage for 30 days): 819.8 ± 295.6 per gram weight of sperm
mean number of spermatozoa per gram weight of sperm ± S.D. ([2]; 400 mg/kg/day by gavage for 30 days): 1753.8 ± 540.6 per gram weight of sperm
mean number of spermatozoa per gram weight of sperm ± S.D. ([2]; 600 mg/kg/day by gavage for 30 days): 1706.0 ± 379.9 per gram weight of sperm
mean number of spermatozoa per gram weight of sperm ± S.D. ([2]; 800 mg/kg/day by gavage for 30 days): 1656.0 ± 165.8 per gram weight of sperm
histological examination: stages of normal spermatogenesis in the seminiferous tubules ([2]; Modafinil treated groups versus controls, testes sections): more distinct and regular than those in the controls
histological examination: cell degeneration during the course of spermatogenesis ([2]; Modafinil treated groups, testes sections): No cell degeneration was found
number of spermatozoa and motility ([2]; all Modafinil treated groups (200-800 mg/kg/day, 30 days), rats): remarkably increased with active motility
number of sexual intercourse (Mean±S.D.) (SD rats of both sexes; males and females treated, first 2 hours of coinhabitation on day 16): 5.0±1.2 times/2 hours/couple
mean number of sexual intercourse relative to control (SD rats of both sexes; rats): 161 % of the control
